Like-named read-outs stand apart in the source and are kept apart here.
Columns and labels:
[1] = system: Male ICR mice; experiment: Catalepsy ring test; format: in vivo, mouse; conditions: for % catalepsy @ 30 mg/kg: 30 mg/kg i.p.; for % catalepsy @ 30 mg/kg / % catalepsy @ 100 mg/kg: 60 or 90 minutes after dosing; for % catalepsy @ 100 mg/kg: 100 mg/kg i.p.
Procedure: The apparatus consisted of a 5.5 centimeter ring attached to a ring stand at a height of 16 centimeters. Male ICR mice (20-25 g) were placed on the ring 60 or 90 minutes after dosing (i.p.) with test compounds or vehicle. Normal behavior for a mouse would be to walk around and investigate the ring. Catalepsy was shown when the mouse remained motionless. The amount of time (in seconds, in a 5 minute test session) the mouse spent motionless was determined.
Mice that fell or jumped were allowed 5 “escapes”. If 5 “escapes” happened before 2.5 minutes into the test, the data were disregarded. The immobility index (% catalepsy) was determined by the amount of time spent immobile divided by the length of the test (P. Little et al. Pharmac. Biochem. & Behavior 1989, 32, 661-666). Since the CB1 receptor is thought to be responsible for psychoactivity, the catalepsy ring test is an excellent in vivo screen for CB1 activity.

[2] = target: T1, hCB1 (Homo sapiens, UniProt P21554); experiment: Inhibition of [3H]CP55940 binding to hCB1 receptor membranes; conditions: human cloned CB1 receptor
T1 construct: expressed in transfected cells; host or cells: CHO-K1 (Chinese hamster ovary), stably transfected; membrane preparation
T1 sequence (P21554 whole entry): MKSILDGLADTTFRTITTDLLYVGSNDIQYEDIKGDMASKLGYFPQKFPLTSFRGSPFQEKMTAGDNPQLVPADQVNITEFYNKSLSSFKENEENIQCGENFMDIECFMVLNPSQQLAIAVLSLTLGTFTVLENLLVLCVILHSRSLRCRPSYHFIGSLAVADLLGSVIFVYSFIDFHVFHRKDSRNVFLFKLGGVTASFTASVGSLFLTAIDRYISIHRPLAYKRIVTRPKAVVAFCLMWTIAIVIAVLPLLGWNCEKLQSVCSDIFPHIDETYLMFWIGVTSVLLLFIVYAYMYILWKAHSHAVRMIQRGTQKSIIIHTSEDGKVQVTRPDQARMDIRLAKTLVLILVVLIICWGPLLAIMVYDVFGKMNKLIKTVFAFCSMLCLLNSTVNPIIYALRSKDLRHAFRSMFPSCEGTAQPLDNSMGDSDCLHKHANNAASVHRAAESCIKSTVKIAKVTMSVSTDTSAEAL
Procedure: (§1) Chinese hamster ovary cells (CHO-K1), stably transfected with either hCB1 or hCB2, were washed two times with cold PBS, scraped from 500 cm^2 tissue culture plates, and pelleted by centrifugation at 1000×g for 10 min. The supernatant was discarded and the pellet was re-suspended in Tris assay buffer (50 mM Tris HCl, pH 7.8, containing 1.0 mM EGTA, 5.0 mM MgCl2, 10 μg/mL leupeptin, 10 μg/mL pepstatin A, 200 μg/mL bacitracin, and 0.5 μg/mL aprotinin), homogenized with a Polytron homogenizer (Brinkmann) at a setting of 1 for 20 sec and centrifuged at 38,000×g for 20 min at 4° C. The pellet was re-suspended in Tris assay buffer and aliquots of 1 mg protein/mL were stored at −80° C. for further use.
Binding assays were performed by incubating 0.2-0.6 nM (34,000-100,000 dpm) of [^3H]CP55940 with membranes prepared from cells expressing cloned human CB1 or CB2 receptors in buffer A (50 mM Tris HCl, pH 7.0, 5.0 mM MgCl2, 1.0 mM EGTA and 1.0 mg/mL fatty acid free bovine serum albumin). […] The filters were rinsed 6 times with one mL of cold wash buffer (50 mM Tris HCl, pH 7.0, 5.0 mM MgCl2, 1.0 mM EGTA and 0.75 mg/mL fatty acid free bovine serum albumin), 30 μL of MicroScint 20 was added to each filter and the radioactivity on the filters determined by scintillation spectroscopy. Nonspecific binding was determined in the presence of 10 μM WIN55212-2. […]

[3] = target: T2, hCB2 (Homo sapiens, UniProt P34972); experiment: hCB2-mediated stimulation of [35S]GTPγS binding; format: biochemical; conditions: read-out: in vitro CB2 receptor agonist potency (EC50)
T2 construct: expressed in transfected cells; host or cells: CHO-K1 (Chinese hamster ovary), stably transfected; membrane preparation
T2 sequence (P34972 whole entry): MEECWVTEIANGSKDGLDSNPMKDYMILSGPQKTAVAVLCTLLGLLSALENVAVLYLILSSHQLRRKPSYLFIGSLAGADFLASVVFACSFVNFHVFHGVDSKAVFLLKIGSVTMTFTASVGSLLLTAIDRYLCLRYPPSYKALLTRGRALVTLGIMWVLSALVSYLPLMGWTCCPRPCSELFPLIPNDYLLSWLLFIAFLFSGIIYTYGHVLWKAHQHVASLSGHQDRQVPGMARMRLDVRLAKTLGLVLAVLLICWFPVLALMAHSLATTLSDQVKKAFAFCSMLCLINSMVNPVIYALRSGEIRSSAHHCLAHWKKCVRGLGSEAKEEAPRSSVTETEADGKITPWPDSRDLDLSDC
Procedure: hCB2-mediated [^35S]GTPγS binding was measured in the same way except the assay mixture contained 10 mM GDP and the incubation time was 6 hours. […] After incubation at 30° C. for 2 hours, the plates were centrifuged at 800×g at 4° C. for 5 min and the radioactivity bound to the membrane was determined by scintillation spectrometry using the Topcount (Perkin Elmer).
EC50 values in functional assays were also derived from automated nonlinear regression analysis of sigmoidal titration curves using the three-parameter modification of the four-parameter equation.

[4] = target: T1, hCB1; experiment: hCB1-mediated stimulation of [35S]GTPγS binding; format: biochemical; conditions: read-out: in vitro CB1 receptor agonist potency (EC50)
Procedure: as §1
hCB1-mediated stimulation of [^35S]GTPγS binding was measured in a mixture containing 100-150 pM [^35S]GTPγS, 150 mM NaCl, […], 0.4 mM DTT, 1 mM EGTA, 1 mg/mL fatty acid free BSA, 25 μg of membrane protein and agonist in a total volume of 250 μL of buffer A in 96 well Basic Flashplates (Perkin Elmer). After incubation at room temperature for 2 hours the plates were centrifuged at 800×g at 4° C. for 5 min and the radioactivity bound to the membranes was determined by scintillation spectrometry using the Topcount (Perkin Elmer). […]

[5] = target: T2, hCB2; experiment: Inhibition of [3H]CP55940 binding to hCB2 receptor membranes
[6] = system: Male Sprague-Dawley rats; experiment: Neuropathic pain assay: L5 spinal nerve ligation, tactile sensitivity (von Frey); format: in vivo, rat; conditions: L5 SNL rats
Procedure: Male Sprague-Dawley rats (120-250 g, Harlan Laboratories, Columbus, Ohio) were housed in pairs and allowed free access to food and water throughout the study. Room temperature and humidity were maintained at 21° C. and 70%, respectively. Nerve injury was produced with tight ligation of the left L5 spinal nerve (Kim and Chung, 1992; LaBuda and Fuchs, 2000a, 2000b, LaBuda, Donahue and Fuchs, 2001). Briefly, animals were placed in the prone position to access the left L4-L6 spinal nerves. Under magnification, approximately one third of the L6 transverse process was removed. The L5 spinal nerve was identified and carefully dissected free from the adjacent L4 spinal nerve and then tightly ligated using 6-0 silk suture. The wound was treated with an antiseptic solution, the muscle layer was sutured, and the wound was closed with wound clips. Sham-operated surgical controls were prepared in the same manner, but the L5 spinal nerve was not […]. All housing conditions and experimental procedures were performed in accordance with the ethical guidelines of the IASP and the Adolor Corporation Animal Care and Use Committee.
Seven to ten animals per group were used for all behavioral assays. After a 7-10 day post-surgical recovery, animals were tested for baseline sensitivity to tactile stimulation of both hindpaws. Allodynic animals were defined as animals having a threshold of less than 7.5 grams of pressure applied to the injured hindpaw. Tactile sensitivity was evaluated using von Frey monofilaments before and after treatment. […] Thirty minutes after treatment, tactile sensitivity was evaluated. Five to seven days later, animals were tested using a different compound. Each animal was tested three times with different compounds. All behavioral testing was performed between 9:00 AM and 5:00 PM in a well-illuminated room with white background noise.
Animals were placed in a Plexiglas chamber (20 cm×10.5 cm×40.5 cm) and habituated for 15 minutes. The chamber was positioned on top of a mesh screen so that von Frey monofilaments could be presented to the plantar surfaces of both hindpaws. Measurements of tactile sensitivity for each hindpaw were obtained using the up/down method (Dixon, 1980) with seven von Frey monofilaments (0.04, 0.07, 0.16, 0.4, 1, 6, and 15 grams). Each trial started with a von Frey force of 0.4 g delivered to the right hindpaw and then the left hindpaw for approximately 1-2 sec each. If there was no withdrawal response, the next higher force was delivered. If there was a response, the next lower force was delivered. This procedure was performed until no response was made at the highest force (15 grams) or until four stimuli were administered following the initial response. The 50% paw withdrawal threshold for each paw was calculated using the following formula: [Xth]log=[vFr]log+ky where [vFr] is the force of the last von Frey filament used, k=0.2249 which is the average interval (in log units) between the von Frey monofilaments, and y is a value that depends upon the pattern of withdrawal responses (Dixon, 1980). […] Testing for tactile sensitivity was performed twice and the mean 50% withdrawal value assigned as the tactile sensitivity for the right and left paws for each animal.
Tactile sensitivity for both hindpaws before and after treatments were analyzed using one-way analysis of variance (ANOVA) followed by post-hoc comparisons (protected t-test) for group differences. An alpha level of 0.05 was used for all analyses.

[7] = Table 3, 10 mg/kg, n = 7-8/group
[8] = Table 3, 2.5 mg/kg i.p., n = 7-8/group

In the case of `CCNC(=O)NCc1cccc(-c2ccc(C(C)(C)COCCC(=O)N3CCOCC3)cc2O)c1` [Compound 11, 1-{4′-[1,1-Dimethyl-2-(3-morpholin-4-yl-3-oxo-propoxy)-ethyl]-2′-hydroxy-biphenyl-3-yl-methyl}-3-ethyl-urea], the “% catalepsy @ 30 mg/kg” value [1] is reported as 6.65 ± 1.87% and the “% catalepsy @ 100 mg/kg” value [1] is reported as 18.80 ± 3.33%.

`CCCCOCC(C)(C)c1ccc(-c2ccccc2CNC(=O)NCC)c(O)c1` [Compound 12, 1-[4′-(2-Butoxy-1,1-dimethyl-ethyl)-2′-hydroxy-biphenyl-2-ylmethyl]-3-ethyl-urea] gave a Ki [2] of 1.6 nM, an EC50 [3] of 15.2 nM and an EC50 [4] of 15.5 nM. For the same compound, the Ki ([5]; human cloned CB2 receptor, read-out: Ki(CB2)) was 0.56 nM.

`CCCCOCC(C)(C)c1ccc(-c2cccc(CNC(=O)NCCC)c2)c(O)c1` [Compound 15, 1-[4′-(2-Butoxy-1,1-dimethyl-ethyl)-2′-hydroxy-biphenyl-3-ylmethyl]-3-propyl-urea] was tested, and the Ki [2] was 1.1 nM, the EC50 [3] was 5.1 nM and the EC50 [4] was 29.1 nM. The Ki [5] was 0.4 nM.

With `CCNC(=O)NCc1cccc(-c2ccc(C(C)(C)COCCOC)cc2O)c1` [Compound 17, 1-Ethyl-3-{2′-hydroxy-4′-[2-(2-methoxy-ethoxy)-1,1-dimethyl-ethyl]-biphenyl-3-ylmethyl}-urea] the “% catalepsy @ 30 mg/kg” value [1] was 12.21 ± 2.79% and the “% catalepsy @ 100 mg/kg” value [1] was 47.93 ± 5.98%.

With `CCNC(=O)NCc1cccc(-c2ccc(C(C)(C)CCCCC(=O)N3CCOCC3)cc2O)c1` [Compound 20, 1-[4′-(1,1-Dimethyl-6-morpholin-4-yl-6-oxo-hexyl)-2′-hydroxy-biphenyl-3-yl-methyl]-3-ethyl-urea] the “Threshold” value ([6]; Table 2, 10 mg/kg i.p., n = 8) was 12.16 ± 2.41 g, the “Threshold” value ([6]; Table 2, 30 mg/kg i.p., n = 8) was 12.02 ± 2.54 g and the “Threshold” value ([6]; Table 3, 3 mg/kg, n = 7-8/group) was 9.14 ± 3.36 g. The “Threshold” value [6, 7] was 16.69 ± 1.19 g, the “% catalepsy @ 30 mg/kg” value [1] was 3.07 ± 1.15% and the “% catalepsy @ 100 mg/kg” value [1] was 5.05 ± 1.81%.

`CCNC(=O)NCc1cccc(-c2ccc(C(C)(C)CCCNC(=O)C(C)(C)C)cc2O)c1` [Compound 35, N-(4-{3′-[(3-Ethyl-ureido)-methyl]-2-hydroxy-biphenyl-4-yl}-4-methyl-pentyl)-2,2-dimethyl-propionamide] was tested, and the “Threshold” value [6, 7] was 10.96 ± 2.66 g.

In the case of `CC(C)(CCCCC(=O)N1CCOCC1)c1ccc(-c2cccc(CNC(=O)C3CCCO3)c2)c(O)c1` (centres unmarked) [Compound 41, Tetrahydrofuran-2-carboxylic acid [4′-(1,1-dimethyl-6-morpholin-4-yl-6-oxo-hexyl)-2′-hydroxy-biphenyl-3-ylmethyl]-amide], the “% catalepsy @ 30 mg/kg” value [1] is reported as 13.07 ± 2.85% and the “% catalepsy @ 100 mg/kg” value [1] is reported as 58.78 ± 7.95%.

In the case of `CC(C)(CCCCC(=O)N1CCOCC1)c1ccc(-c2cccc(CNS(C)(=O)=O)c2)c(O)c1` [Compound 71], the “% catalepsy @ 30 mg/kg” value [1] is reported as 3.38 ± 2.75% and the “% catalepsy @ 100 mg/kg” value [1] is reported as 24.65 ± 3.36%.

For `Cc1c(C(=O)c2cccc3ccccc23)c2cccc3c2n1[C@H](CN1CCOCC1)CO3` [WIN+, WIN55,212-2, reference compound], the “Threshold” value [6, 8] was 15.03 ± 1.70 g and the “% catalepsy” value ([1]; WIN @ 10 mg/kg i.p.) was 51.64 ± 2.69%.

With `Cc1c(C(=O)c2cccc3ccccc23)c2cccc3c2n1[C@@H](CN1CCOCC1)CO3` [WIN−, WIN55,212-3, reference compound] the “Threshold” value [6, 8] was 6.25 ± 1.19 g.

From patent US7671052B2 (priority 2004, dated 2010)
